{
  "source": "paper PMC9835671",
  "about": "(The Pediatric Infectious Disease Journal, 2022)",
  "origin": "cited, not measured here",
  "key": {"[1]": {"test_system": "S aureus", "settings": "neutropenic murine thigh infection model"}, "[2]": {"test_system": "S aureus"}, "[3]": {"settings": "adults"}, "[4]": {"test_system": "ABSSSI", "settings": "for Clinical response: microbiological ITT population"}, "[5]": {"test_system": "S aureus", "settings": "adult popPK model; 1000-mg (double-dose) and 1500-mg (single-dose) doses; MIC ≤2 mg/L"}, "[6]": {"test_system": "serum albumin", "settings": "intravenously administered"}},
  "note": "Read-outs that look alike come from different tables or passages of the source.",
  "data": [
    {"smiles": "CN[C@H]1C(=O)N[C@@H]2Cc3ccc(cc3)Oc3cc4cc(c3O[C@@H]3O[C@H](C(=O)O)[C@@H](O)[C@H](O)[C@H]3NC(=O)CCCCCCCCC(C)C)Oc3ccc(cc3Cl)[C@@H](O)[C@@H]3NC(=O)[C@H](NC(=O)[C@@H]4NC(=O)[C@@H](NC2=O)c2cc(cc(O)c2Cl)Oc2cc1ccc2O)c1ccc(O)c(c1)-c1c(O[C@H]2O[C@H](CO)[C@@H](O)[C@H](O)[C@@H]2O)cc(O)cc1[C@@H](C(=O)NCCCN(C)C)NC3=O", "note": "[dalbavancin]", "values": [
      {"measurement": "24-hour fAUC/MIC target for bacterial stasis", "setting": "[1]", "value": 27.1, "unit": "h"},
      {"measurement": "CLSI susceptibility breakpoint", "setting": "[2]; Clinical and Laboratory Standards Institute", "value": 0.25, "unit": "µg/mL"},
      {"measurement": "MIC90", "setting": "[2]; against S aureus", "value": 0.03, "unit": "µg/mL"},
      {"measurement": "terminal elimination half-life (t1/2)", "setting": "[3]", "value": "> 14", "unit": "days"},
      {"measurement": "Clinical response", "setting": "[4]; double-dose regimen, end-of-treatment", "value": 97.3, "unit": "%"},
      {"measurement": "Clinical response", "setting": "[4]; double-dose regimen, follow-up", "value": 97.3, "unit": "%"},
      {"measurement": "Clinical response", "setting": "[4]; single-dose regimen, end-of-treatment", "value": 94.8, "unit": "%"},
      {"measurement": "Clinical response", "setting": "[4]; single-dose regimen, follow-up", "value": 97.4, "unit": "%"},
      {"measurement": "patients who achieved a clinical cure", "setting": "[4]; test-of-cure", "value": "> 96", "unit": "%"},
      {"measurement": "simulated patients predicted to achieve the stasis target", "setting": "[5]", "value": "> 99", "unit": "%"},
      {"measurement": "bound to serum albumin", "setting": "[6]", "value": "~ 93%"},
      {"measurement": "unbound form", "setting": "[6]", "value": 7, "unit": "%"}
    ]}
  ]
}
